Data set [1] can be described thus: The drug is tested on Bacteroides fragilis strain: T(B)9 for biotransformation. The drug concentrations were measured before and after a 12-h incubation by liquid-chromatography-coupled mass spectrometry (LC–MS). The note with it: 2 µM.
Data set [2] in a line: The drug is tested on Bacteroides fragilis strain: HMW610 for biotransformation. The drug concentrations were measured before and after a 12-h incubation by liquid-chromatography-coupled mass spectrometry (LC–MS). The note with it: 2 µM.
Data set [3] in a line: The drug is tested on Bacteroides ovatus strain: ATCC8483 for biotransformation. The drug concentrations were measured before and after a 12-h incubation by liquid-chromatography-coupled mass spectrometry (LC–MS). The note with it: 2 µM.
Data set [4] can be described thus: The drug is tested on Clostridium hathewayi strain: DSM13479 for biotransformation. The drug concentrations were measured before and after a 12-h incubation by liquid-chromatography-coupled mass spectrometry (LC–MS). The note with it: hungatella hathewayi, 2 µM.
Data set [5] is described as follows: The drug is tested on Clostridium spiroforme strain: DSM1552 for biotransformation. The drug concentrations were measured before and after a 12-h incubation by liquid-chromatography-coupled mass spectrometry (LC–MS). The note with it: thomasclavelia spiroformis, 2 µM.
The nature of data set [6]: The drug is tested on Eubacterium biforme strain: DSM3989 for biotransformation. The drug concentrations were measured before and after a 12-h incubation by liquid-chromatography-coupled mass spectrometry (LC–MS). The note with it: holdemanella biformis, 2 µM.
Data set [7] can be described thus: The drug is tested on Proteus penneri strain: ATCC35198 for biotransformation. The drug concentrations were measured before and after a 12-h incubation by liquid-chromatography-coupled mass spectrometry (LC–MS). The note with it: 2 µM.
The conditions of data set [8]: bacteroides stercoris, 12 h, 2 µM.
Description: The drug is tested on Bacteroides stercoris strain: ATCC43183 for biotransformation. The drug concentrations were measured before and after a 12-h incubation by liquid-chromatography-coupled mass spectrometry (LC–MS)
For data set [9] the following is noted: roseburia intestinalis, 12 h, 2 µM.
Description: The drug is tested on Roseburia intestinalis strain: L1-82 for biotransformation. The drug concentrations were measured before and after a 12-h incubation by liquid-chromatography-coupled mass spectrometry (LC–MS)
The conditions of data set [10]: victivallis vadensis, 12 h, 2 µM.
Description: The drug is tested on Victivallis vadensis strain: ATCC BAA-548 for biotransformation. The drug concentrations were measured before and after a 12-h incubation by liquid-chromatography-coupled mass spectrometry (LC–MS)
Data set [11] in a line: The drug is tested on Providencia alcalifaciens strain: DSM30120 for biotransformation. The drug concentrations were measured before and after a 12-h incubation by liquid-chromatography-coupled mass spectrometry (LC–MS). The note with it: 2 µM.
Data set [12] is described as follows: The drug is tested on Providencia rettgeri strain: DSM1131 for biotransformation. The drug concentrations were measured before and after a 12-h incubation by liquid-chromatography-coupled mass spectrometry (LC–MS). Format: ADME. The arrangement: dose 2 uM, timepoint 0 vs 12 hours. The note with it: 2 µM.
The conditions of data set [13]: clostridioides difficile, 12 h, 2 µM.
Description: The drug is tested on Clostridium difficile strain: 120 for biotransformation. The drug concentrations were measured before and after a 12-h incubation by liquid-chromatography-coupled mass spectrometry (LC–MS)
Data set [14] is described as follows: The drug is tested on Eggerthella lenta strain: ATCC25559 for biotransformation. The drug concentrations were measured before and after a 12-h incubation by liquid-chromatography-coupled mass spectrometry (LC–MS). The note with it: 2 µM.
Data set [15] in a line: The drug is tested on Salmonella typhimurium strain: LT2 for biotransformation. The drug concentrations were measured before and after a 12-h incubation by liquid-chromatography-coupled mass spectrometry (LC–MS). The note with it: salmonella enterica subsp. enterica, 2 µM.

With `CN1C(C(=O)Nc2ccccn2)=C(O)c2sccc2S1(=O)=O` [TENOXICAM], the “Bacterial Biotransformation” value in data set [1], in data set [2], in [3], in data set [4], in data set [5] and in data set [6] was “Compound NOT metabolized” in each case. Also, the “Bacterial Biotransformation” value in data set [7], in data set [8], in data set [9] and in data set [10] was “Compound NOT metabolized” in each case.

Take `OC(CCN1CCCCC1)(c1ccccc1)C1CCCCC1` (centres undefined) [TRIHEXYPHENIDYL]: the “Bacterial Biotransformation” value in data set [2], in data set [3], in [5], in data set [6], in data set [7] and in data set [11] was “Compound NOT metabolized” each time.

As for `CC(C)(C)NC[C@H](O)COc1nsnc1N1CCOCC1.O=C(O)/C=C\C(=O)O` [TIMOLOL MALEATE], the “Bacterial Biotransformation” value in data set [3], in data set [4], in data set [5], in data set [12], in data set [8] and in [13] was “Compound NOT metabolized” each time. Moreover, the “Bacterial Biotransformation” value in [9] is recorded as “Compound NOT metabolized”.

As to `O=C([O-])C[C@H](O)C[C@H](O)/C=C/c1c(C2CC2)nc2ccccc2c1-c1ccc(F)cc1.O=C([O-])C[C@H](O)C[C@H](O)/C=C/c1c(C2CC2)nc2ccccc2c1-c1ccc(F)cc1.[Ca+2]` [PITAVASTATIN CALCIUM], the “Bacterial Biotransformation” value in data set [14], in data set [2], in data set [3], in data set [5], in [12] and in data set [8] was “Compound NOT metabolized” throughout. Besides, the “Bacterial Biotransformation” value in [13] and in data set [10] was “Compound NOT metabolized” each time.

In the case of `OCCOCCN1CCN(C2=Nc3ccccc3Sc3ccccc32)CC1` [QUETIAPINE], the “Bacterial Biotransformation” value in data set [2], in data set [3], in data set [4], in data set [6], in data set [7] and in [11] was “Compound NOT metabolized” in each case. Besides, the “Bacterial Biotransformation” value in [15], in [8], in [9] and in data set [10] was “Compound NOT metabolized” in each case.

Consider `O=C1C(CC[S+]([O-])c2ccccc2)C(=O)N(c2ccccc2)N1c1ccccc1` (centres undefined) [SULFINPYRAZONE], for which the “Bacterial Biotransformation” value in data set [14] is given as “Compound metabolized”; in data set [2] it was “Compound metabolized”; in [3], “Compound NOT metabolized”; in [4], “Compound NOT metabolized”; in data set [5], “Compound NOT metabolized”; in data set [8], “Compound NOT metabolized”. The “Bacterial Biotransformation” value in data set [9] and in [10] was “Compound NOT metabolized” each time.

Consider `COc1cc2nc(N3CCN(C(=O)c4ccco4)CC3)nc(N)c2cc1OC` [PRAZOSIN], for which the “Bacterial Biotransformation” value in data set [2], in data set [3], in data set [4], in data set [5], in [12] and in [8] was “Compound NOT metabolized” in each case. In addition, the “Bacterial Biotransformation” value in data set [9] is given as “Compound NOT metabolized”.

Take `CCCCC1=NC2(CCCC2)C(=O)N1Cc1ccc(-c2ccccc2-c2nnn[nH]2)cc1` [IRBESARTAN]: the “Bacterial Biotransformation” value in [2], in [3], in data set [4], in data set [5], in data set [12] and in [8] was “Compound metabolized” in each case. For the same molecule, the “Bacterial Biotransformation” value in [13] and in data set [10] was “Compound NOT metabolized” in each case.

`Nc1c2c(nc3ccccc13)CCCC2` [TACRINE]: the “Bacterial Biotransformation” value in [4], in data set [5], in [7], in [15], in data set [8] and in data set [13] was “Compound NOT metabolized” in each case. Also, in [9], the “Bacterial Biotransformation” value is on record as “Compound NOT metabolized”.

Consider `O=c1[nH]c2ccccc2n1C1CCN(CCCC(c2ccc(F)cc2)c2ccc(F)cc2)CC1` [PIMOZIDE], for which the “Bacterial Biotransformation” value in data set [2], in data set [3], in data set [12], in data set [15], in data set [8] and in [9] was “Compound NOT metabolized” throughout. In addition, the “Bacterial Biotransformation” value in [10] is “Compound NOT metabolized”.

As for `COC1=CC(=O)C[C@@H](C)[C@]12Oc1c(Cl)c(OC)cc(OC)c1C2=O` [GRISEOFULVIN], the “Bacterial Biotransformation” value in data set [14] is recorded as “Compound NOT metabolized”; in [1], “Compound metabolized”; in data set [4] it was “Compound NOT metabolized”; in data set [7] it was “Compound NOT metabolized”; in data set [12], “Compound NOT metabolized”; in [15], “Compound NOT metabolized”. The “Bacterial Biotransformation” value in data set [10] is “Compound NOT metabolized”.

For the molecule `CCC(COC(=O)c1cc(OC)c(OC)c(OC)c1)(c1ccccc1)N(C)C.O=C(O)/C=C\C(=O)O` (centres undefined), the “Bacterial Biotransformation” value is recorded as “Compound metabolized” in [14]; “Compound NOT metabolized” in [2]; “Compound metabolized” in [3]; “Compound NOT metabolized” in data set [12]; “Compound metabolized” in data set [8]; “Compound metabolized” in data set [9]. The “Bacterial Biotransformation” value in [10] was “Compound metabolized”.

Consider `COc1ccc(C(CN(C)C)C2(O)CCCCC2)cc1` (centres undefined) [VENLAFAXINE], for which the “Bacterial Biotransformation” value in data set [14], in data set [2], in [3], in data set [12], in data set [8] and in [9] was “Compound NOT metabolized” in each case. In addition, the “Bacterial Biotransformation” value in data set [10] was “Compound NOT metabolized”.

Source of the values: ChEMBL document CHEMBL5303573, “Mapping human microbiome drug metabolism by gut bacteria and their genes” (Nature, 2019).
